SMILES strings stand for the structures.

Experimental findings from patent publication US20100168170A1, “Piperidinones Useful in the Treatment of Inflammation” (priority 2007, published 2010) are described below.

Assay [1] concerns the target PDE4 enzyme (U937 lysate or recombinant hPDE4). Nature of the assay: In vitro inhibition of PDE4 phosphodiesterases ([3H]cAMP SPA enzyme assay, Method A). The class given is biochemical, human. The conditions noted are these: Biological Example 1, Method A. As for the experimental part:
PDE4 U937 cytoplasmic extracts were prepared by a modified procedure of the assay described in MacKenzie, S. J. and Houslay, M. D., “Action of rolipram on specific PDE4 cAMP phosphodiesterase isoforms and on the phosphorylation of cAMP-response-element-binding protein (CREB) and p38 mitogen-activated protein (MAP) kinase in U937 monocytic cells”, Biochem J. (2000), 347(Pt 2):571-8, by lysis of U937 cells (ATCC: Catalogue No. CRL-159) in M-PER Lysis buffer (Pierce) containing 10% protease inhibitor cocktail (Sigma). The cell lysates were then centrifuged at 30,000 rpm for 15 minutes at 4° C. The supernatants were aliquoted and stored at −80° C.
An alternative source of PDE4 enzymes was from recombinant human PDE4 obtained from baculovirus-SF9 cells expression system. cDNA containing PDE4D1 was cloned into a baculovirus vector, insect cells (SF9) were then infected and cells cultured to express the PDE4 protein. The cells were lysed and used directly in assay or partially purified using standard procedures. The process can be used for other PDE4 and PDE enzymes.
Compounds of the invention were evaluated for inhibitory activity against PDE4 enzymes by the following assay Method A or B.
PDE4 assay based on modified procedure of Phosphodiesterase [^3H]cAMP SPA Enzyme Assay (Amersham Biosciences, code TRKQ 7090). In this assay, PDE4 enzymes converts [^3H]cAMP to [^3H]5′-AMP. The assay is quenched by the addition of SPA yttrium silicate beads which preferentially bind linear nucleotides over cyclic nucleotides in the presence of zinc sulphate.
Reactions were performed in duplicate by the addition of 10 μl PDE4 enzyme (U937 lysate or recombinant hPDE4) to 20 μL of assay mix and 20 μL of test compounds in Isoplates (Wallac) for 30 minutes, at 37° C. The final assay mixture contained: 50 mM Tris (pH 7.5), 8.3 mM MgCl2, 1.7 mM EGTA and [^3H]cAMP (0.025 μCi) (Amersham). Assay was terminated by addition 25 μL SPA beads. The plate was sealed, shaken for 1 minute and then allowed to settle 30 minutes and the cpm determined using a Wallac Micobeta.
PDE4 enzyme was added in quantities such that less than 15% of substrate was consumed (linear assay conditions).

In a further assay the target is T1, human platelet PDE3 (Homo sapiens, UniProt Q14432).
T1 construct: tissue AllCells, LLC PB027; host or cells: human platelets, 70,000 g supernatant of sonicated lysate
T1 sequence (Q14432 whole entry): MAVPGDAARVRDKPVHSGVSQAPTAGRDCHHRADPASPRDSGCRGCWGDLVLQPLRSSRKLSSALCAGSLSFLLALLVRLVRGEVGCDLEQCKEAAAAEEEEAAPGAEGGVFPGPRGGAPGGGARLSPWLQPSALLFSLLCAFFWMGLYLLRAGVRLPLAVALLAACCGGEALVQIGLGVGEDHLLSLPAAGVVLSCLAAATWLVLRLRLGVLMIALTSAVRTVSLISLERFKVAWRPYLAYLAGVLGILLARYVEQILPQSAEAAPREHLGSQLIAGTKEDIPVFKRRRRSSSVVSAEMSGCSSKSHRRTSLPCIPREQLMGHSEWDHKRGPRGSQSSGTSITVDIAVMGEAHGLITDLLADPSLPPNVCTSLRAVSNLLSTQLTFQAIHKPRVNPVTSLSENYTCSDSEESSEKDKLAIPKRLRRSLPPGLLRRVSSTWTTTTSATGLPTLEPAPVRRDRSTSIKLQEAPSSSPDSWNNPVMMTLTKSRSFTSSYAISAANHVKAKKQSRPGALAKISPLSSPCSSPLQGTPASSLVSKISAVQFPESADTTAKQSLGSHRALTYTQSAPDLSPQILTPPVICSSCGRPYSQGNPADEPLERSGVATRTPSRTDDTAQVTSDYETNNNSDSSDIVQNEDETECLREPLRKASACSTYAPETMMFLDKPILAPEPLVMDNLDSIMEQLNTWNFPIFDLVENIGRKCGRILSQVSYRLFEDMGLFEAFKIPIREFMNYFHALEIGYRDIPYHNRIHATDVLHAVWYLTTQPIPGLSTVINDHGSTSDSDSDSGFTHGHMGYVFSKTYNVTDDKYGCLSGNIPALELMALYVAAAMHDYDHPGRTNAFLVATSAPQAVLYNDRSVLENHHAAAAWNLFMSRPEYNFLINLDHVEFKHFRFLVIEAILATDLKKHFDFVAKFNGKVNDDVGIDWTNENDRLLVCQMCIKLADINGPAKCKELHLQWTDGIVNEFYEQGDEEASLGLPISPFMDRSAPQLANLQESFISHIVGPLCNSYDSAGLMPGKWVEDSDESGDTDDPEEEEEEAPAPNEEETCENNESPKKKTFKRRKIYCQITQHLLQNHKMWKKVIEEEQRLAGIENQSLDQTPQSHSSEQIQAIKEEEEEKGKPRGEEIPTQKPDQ
Nature of the assay: In vitro inhibition of PDE3 phosphodiesterases (platelet extract, [3H]cAMP SPA). The class given is biochemical. The conditions noted are these: cAMP as substrate. How it is done:
Compounds of the invention were evaluated for inhibitory activity against human platelet PDE3 to ascertain PDE3 inhibition. The PDE3 assay was performed using platelet cell extract as described above in Biological Example 1 for the PDE4 assay. Platelets are known contain PDE's 2, 3 and 5. However […] utilize cGMP, so in an assay with cAMP as a substrate they are not detected.
Human platelet cytoplasmic extracts were prepared by modified method of Keller et al. Human platelets (AllCells, LLC; Cat. No. PB027) were sonicated in supplemented lysis buffer. Supplemented lysis buffer consisted of 20 mM Tris, 1 mM EDTA, 1 mM DTT, 0.25 M sucrose, 1 mM benzamidine, 1 μg/mL Leupeptin, 1 μM Pepstatin, and 0.1 mM PMSF, pH 7.5. The platelet lysates were centrifuged at 70,000 g for 30 minutes at 4° C. The supernatants were aliquoted and stored at −80° C.
Reactions were performed in duplicate by the addition of 10 μL PDE3 lysate to 20 μL of assay mix and 20 μL of test compounds in Isoplates (Wallac) for 30 minutes, at 37° C. […] The plate was sealed, shaken for 1 minute and then allowed to settle 30 minutes and the cpm determined using a Wallac Micobeta.
PDE3 enzyme was added in quantities such that less than 15% of substrate was consumed (linear assay conditions).

For `COc1ccc([C@H]2CNC(=O)[C@@H](Cc3ccc(OCC(N)=O)cc3)C2)cc1OC1CCCC1` [2-(4-(((3R,5S)-5-(3-(cyclopentyloxy)-4-methoxyphenyl)-2-oxopiperidin-3-yl)methyl)phenoxy)acetamide], in assay [1], the 50% inhibitory concentration (IC50) worked out at 1340 nM. For the molecule `COc1ccc([C@@H]2C[C@H](Cc3cccc(C)c3)C(=O)N(C(C)=O)C2)cc1OC1CCCC1` [(3R,5S)-1-acetyl-5-(3-(cyclopentyloxy)-4-methoxyphenyl)-3-(3-methylbenzyl)piperidin-2-one], the IC50 in assay [1] stood at 1100 nM. With `COc1ccc([C@H]2CNC(=O)[C@@H](Cc3cccc(OCc4ccccc4)c3)C2)cc1OC1CCCC1` [(3R,5S)-3-(3-(benzyloxy)benzyl)-5-(3-(cyclopentyloxy)-4-methoxyphenyl)piperidin-2-one], in assay [1], the IC50 was 189 nM.

As to `COc1ccc([C@@H]2C[C@H](Cc3cccc(C)c3)C(=O)N(CC(C)C)C2)cc1OC1CCCC1` [(3R,5S)-5-(3-(cyclopentyloxy)-4-methoxyphenyl)-1-isobutyl-3-(3-methylbenzyl)-piperidin-2-one], the IC50 in assay [1] was found to be 6780 nM. The same measure, in the same setting: the same measure for `COc1ccc([C@H]2CNC(=O)[C@H](CCCCCc3ccccc3)C2)cc1OC1CCCC1` [(3R,5S)-5-(3-(cyclopentyloxy)-4-methoxyphenyl)-3-(5-phenylpentyl)piperidin-2-one]: 578 nM; for `COc1ccc([C@H]2CNC(=O)[C@H](Cc3ccc(F)c(F)c3)C2)cc1OC1CCCC1` [(3S,5S)-5-(3-(cyclopentyloxy)-4-methoxyphenyl)-3-(3,4-difluorobenzyl)piperidin-2-one]: 101 nM; for `CCCNc1cccc(C[C@@H]2C[C@@H](c3ccc(OC)c(OC4CCCC4)c3)CNC2=O)c1` [(3S,5S)-5-(3-(cyclopentyloxy)-4-methoxyphenyl)-3-(3-(propylamino)benzyl)-piperidin-2-one]: 604 nM. With `COc1ccc([C@H]2CNC(=O)[C@H](Cc3ccc(Oc4ccccc4)cc3)C2)cc1OC1CCCC1` [(3S,5S)-5-(3-(cyclopentyloxy)-4-methoxyphenyl)-3-(4-phenoxybenzyl)piperidin-2-one], in assay [1], the IC50 is 457 nM. With `COc1cc(CC2C[C@@H](c3ccc(OC)c(OC4CCCC4)c3)CNC2=O)ccc1OC1CCCC1` (stereo partly drawn) [(5S)-3-(4-(cyclopentyloxy)-3-methoxybenzyl)-5-(3-(cyclopentyloxy)-4-methoxyphenyl)piperidin-2-one], the IC50 in assay [1] worked out at 379 nM. In the case of `COc1cc(CC2C[C@@H](c3ccc(OC)c(-c4ccccc4)c3)CNC2=O)ccc1OC1CCCC1` (stereo partly drawn) [(5S)-3-(4-(cyclopentyloxy)-3-methoxybenzyl)-5-(6-methoxybiphenyl-3-yl)piperidin-2-one], the IC50 in assay [1] was 519 nM.

With `CCCCCCCOc1cc([C@H]2CNC(=O)C(Cc3ccccc3)C2)ccc1OC` (stereo partly drawn) [(5S)-3-benzyl-5-(3-(heptyloxy)-4-methoxyphenyl)piperidin-2-one], in assay [1], the IC50 was 1280 nM. Regarding `COc1ccc([C@H]2CNC(=O)C(C(C)c3ccccc3)C2)cc1OC1CCCC1` (stereo partly drawn) [(5S)-5-(3-(cyclopentyloxy)-4-methoxyphenyl)-3-(1-phenylethyl)piperidin-2-one], the IC50 in assay [1] turned out to be 1040 nM.

On to `CCOc1cc([C@H]2CNC(=O)C(Cc3ccc(F)cc3)(Cc3ccc(F)cc3)C2)ccc1OC` [(S)-5-(3-ethoxy-4-methoxyphenyl)-3,3-bis(4-fluorobenzyl)piperidin-2-one], for which the IC50 in assay [1] was found to be 5080 nM. In the case of `COc1ccc(C2CNC(=O)C2)cc1OC1CCCC1` (stereo not drawn) [rolipram], the “inhibition of PDE3 (assay specificity control)” value at human platelet PDE3 is given as “without effect”. For the molecule `COc1cc2c(cc1OC)-c1c/c(=N\c3c(C)cc(C)cc3C)n(C)c(=O)n1CC2` [trequinsin], the “inhibition of PDE3 (assay specificity control)” value against human platelet PDE3 is listed as “potent inhibitor”.

What is called IC50 is the point on the concentration scale where inhibition reaches its midpoint.
